The target of the assay is T1, ligand binding domain of human RORγ (A262-S507) (Homo sapiens, UniProt P51449).
T1 construct: made in house; host or cells: E. coli
T1 sequence (P51449 262-507): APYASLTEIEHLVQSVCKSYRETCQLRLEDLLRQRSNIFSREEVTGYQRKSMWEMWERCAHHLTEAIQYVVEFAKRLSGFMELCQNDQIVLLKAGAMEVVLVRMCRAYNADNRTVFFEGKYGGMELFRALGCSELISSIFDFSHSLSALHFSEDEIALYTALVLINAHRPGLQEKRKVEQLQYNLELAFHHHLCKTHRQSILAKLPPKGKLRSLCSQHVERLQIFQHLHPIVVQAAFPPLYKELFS
As to the kind of experiment: General RORγ SPA binding assay (competition with [3H]25-hydroxycholesterol). The following applies: RORγ SPA binding assay, inhibition of [3H]25-hydroxycholesterol binding; read-out: IC50. The gist of the method:
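Step one: compound meets 50 nM nickel-purified, His-tagged protein from E. coli for 15 min at room temperature (PBS, 0.5% fatty acid free BSA). Step two: radioligand is added for another 15 min. Step three: SPA beads are added for 30 min before scintillation reading and IC50 fitting.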
Consider `Cc1ncc(C(C)(CO)CNc2ccnc(C(F)(F)F)n2)c(C2CCN(C(=O)Cc3c(F)cccc3F)CC2)n1` (stereo not drawn) [Compound F5, 2-(2,6-Difluorophenyl)-1-(4-(5-(1-hydroxy-2-methyl-3-(2-(trifluoromethyl)pyrimidin-4-ylamino)propan-2-yl)-2-methylpyrimidin-4-yl)piperidin-1-yl)ethanone], for which the IC50 (as a rule, the concentration at which inhibition is half-maximal) worked out at 101 nM.

Take `Cc1cc(C)cc(CNC(=O)c2c(C(C)C)nc(C)nc2C2CCN(C(=O)Cc3c(F)cccc3F)CC2)c1` [Compound A84, 4-(1-(2-(2,6-difluorophenyl)acetyl)piperidin-4-yl)-N-(3,5-dimethylbenzyl)-6-isopropyl-2-methylpyrimidine-5-carboxamide]: the IC50 stood at 1650 nM.

Consider `Cc1ncc(C(C)(O)CN(C)c2ccnc(C(F)(F)F)n2)c(C2CCN(C(=O)Cc3c(F)cccc3F)CC2)n1` (stereo not drawn) [Compound D20, 2-(4-{1-[(2,6-Difluorophenyl)acetyl]piperidin-4-yl}-2-methylpyrimidin-5-yl)-1-{methyl[2-(trifluoromethyl)pyrimidin-4-yl]amino}propan-2-ol], for which the IC50 was 72.8 nM.

Turning to `Cc1nc(N)nc(C2CCN(C(=O)Oc3c(F)cccc3F)CC2)c1-c1nnc(-c2ccnc(C(F)(F)F)n2)o1` [Compound C50, 2,6-Difluorophenyl 4-(2-amino-6-methyl-5-{5-[2-(trifluoromethyl)pyrimidin-4-yl]-1,3,4-oxadiazol-2-yl}pyrimidin-4-yl)piperidine-1-carboxylate], the IC50 came to 6.1 nM.

As to `Cc1ncc(C(C)(O)CNc2nccc(C(F)(F)F)n2)c(C2CCN(C(=O)Nc3c(F)cccc3F)CC2)n1` (stereo not drawn) [Compound D21, N-(2,6-Difluorophenyl)-4-[5-(1-hydroxy-1-methyl-2-{[4-(trifluoromethyl)pyrimidin-2-yl]amino}ethyl)-2-methylpyrimidin-4-yl]piperidine-1-carboxamide], the IC50 amounted to 47.7 nM.

Turning to `Cc1cc(C)cc(CNC(=O)c2cnc(C)nc2C2CCN(C(=O)Oc3ccccc3Cl)CC2)c1` [Compound A119, 2-Chlorophenyl 4-[5-({[(3,5-dimethylphenyl)methyl]amino}carbonyl)-2-methylpyrimidin-4-yl]piperidine-1-carboxylate], the IC50 amounted to 6.2 nM.

Take `Cc1ncc(C(=O)NCc2cccc(C#N)c2)c(C2CCN(C(=O)Cc3c(F)cccc3F)CC2)n1` [Compound A50, N-(3-cyanobenzyl)-4-(1-(2-(2,6-difluorophenyl)acetyl)piperidin-4-yl)-2-methylpyrimidine-5-carboxamide]: the IC50 was determined as 7.1 nM.

As to `Cc1cc(C)cc(CNC(=O)c2cnc(C)nc2C2CCN(CCc3ccccc3Cl)CC2)c1` [Compound A100, 4-(1-(2-chlorophenethyl)piperidin-4-yl)-N-(3,5-dimethylbenzyl)-2-methylpyrimidine-5-carboxamide], the IC50 amounted to 433 nM.

Take `CNC(COc1cccc(C(F)(F)F)n1)c1cnc(N)nc1C1CCN(C(=O)Nc2c(F)cccc2F)CC1` (stereo not drawn) [Compound N27, 4-{2-Amino-5-[1-(methylamino)-2-{[6-(trifluoromethyl)pyridin-2-yl]oxy}ethyl]pyrimidin-4-yl}-N-(2,6-difluorophenyl)piperidine-1-carboxamide]: the IC50 came to 18.2 nM.

As to `CC(C)Oc1ncc(C(C)(O)COc2ccnc(C(F)(F)F)n2)c(C2CCN(C(=O)Nc3c(F)cccc3F)CC2)n1` (stereo not drawn) [Compound D40, N-(2,6-Difluorophenyl)-4-{5-(1-hydroxy-1-methyl-2-{[2-(trifluoromethyl)pyrimidin-4-yl]oxy}ethyl)-2-[(1-methylethyl)oxy]pyrimidin-4-yl}piperidine-1-carboxamide], the IC50 amounted to 29.6 nM.

In the case of `Cc1nc(C)c(-c2nnc(-c3ccc(Cl)cn3)o2)c(C2CCN(C(=O)Cc3c(F)cccc3F)CC2)n1` [Compound C20, 1-(4-(5-(5-(5-chloropyridin-2-yl)-1,3,4-oxadiazol-2-yl)-2,6-dimethylpyrimidin-4-yl)piperidin-1-yl)-2-(2,6-difluorophenyl)ethanone], the IC50 was 657 nM.

For `COc1cccc(CC(=O)N2CCC(c3nc(C)ncc3C(=O)NCc3cc(C)cc(C)c3)CC2)c1` [Compound A39, N-(3,5-dimethylbenzyl)-4-(1-(2-(3-methoxyphenyl)acetyl)piperidin-4-yl)-2-methylpyrimidine-5-carboxamide], the IC50 was found to be 5450 nM.

With `O=C(NCc1ccc(Cl)c(Cl)c1)c1cncnc1C1CCN(C(=O)Cc2c(F)ccc(F)c2F)CC1` [Compound A68, N-(3,4-dichlorobenzyl)-4-(1-(2-(2,3,6-trifluorophenyl)acetyl)piperidin-4-yl)pyrimidine-5-carboxamide], the IC50 is 95 nM.

On to `Cc1ncc(C(=O)NCc2ccc(Cl)cc2)c(C2CCN(C(=O)Cc3c(F)cccc3F)CC2)n1` [Compound A62, N-(4-chlorobenzyl)-4-(1-(2-(2,6-difluorophenyl)acetyl)piperidin-4-yl)-2-methylpyrimidine-5-carboxamide], for which the IC50 worked out at 43.4 nM.

Take `Cc1cc(C)nc(NCC(C)(O)c2cnc(C)nc2C2CCN(C(=O)Cc3c(F)cccc3F)CC2)c1` (stereo not drawn) [Compound D6, 2-(2,6-difluorophenyl)-1-(4-(5-(1-((4,6-dimethylpyridin-2-yl)amino)-2-hydroxypropan-2-yl)-2-methylpyrimidin-4-yl)piperidin-1-yl)ethanone]: the IC50 came to 23.3 nM.

In the case of `C/C(=N\Oc1cccc(C(F)(F)F)c1)c1cnc(C)nc1C1CCN(C(=O)Nc2c(F)cccc2F)CC1` [Compound B43, N-(2,6-Difluorophenyl)-4-{2-methyl-5-[(1E)-N-{[3-(trifluoromethyl)phenyl]oxy}ethanimidoyl]pyrimidin-4-yl}piperidine-1-carboxamide], the IC50 turned out to be 13.5 nM.

Turning to `Cc1nc(N)nc(C2CCN(C(=O)Nc3c(F)cccc3F)CC2)c1C(O)COc1ccnc(C(F)(F)F)n1` (stereo not drawn) [Compound N7, 4-[2-amino-5-(1-hydroxy-2-{[2-(trifluoromethyl)pyrimidin-4-yl]oxy}ethyl)-6-methylpyrimidin-4-yl]-N-(2,6-difluorophenyl)piperidine-1-carboxamide], the 50% inhibitory concentration (IC50) came to 16.9 nM.

Take `COc1nc(C)c(-c2nnc(-c3ccnc(C(F)(F)F)n3)o2)c(C2CCN(C(=O)Nc3c(F)cccc3F)CC2)n1` [Compound C61, N-(2,6-Difluorophenyl)-4-[6-methyl-2-(methyloxy)-5-{5-[2-(trifluoromethyl)pyrimidin-4-yl]-1,3,4-oxadiazol-2-yl}pyrimidin-4-yl]piperidine-1-carboxamide]: the IC50 came out at 1140 nM.

Consider `Nc1ncc(C(O)COc2ccnc(C(F)(F)F)n2)c(C2CCN(C(=O)Oc3c(F)cccc3F)CC2)n1` (stereo not drawn) [Compound N13, 2,6-Difluorophenyl 4-[2-amino-5-(1-hydroxy-2-{[2-(trifluoromethyl)pyrimidin-4-yl]oxy}ethyl)pyrimidin-4-yl]piperidine-1-carboxylate], for which the IC50 stood at 6.8 nM.

For `Cc1ncc(C(=O)NCc2ccc(Cl)c(Cl)c2)c(C2CCN(C(=O)Cc3c(F)ccc(F)c3F)CC2)n1` [Compound A13, N-(3,4-dichlorobenzyl)-2-methyl-4-(1-(2-(2,3,6-trifluorophenyl)acetyl)piperidin-4-yl)pyrimidine-5-carboxamide], the IC50 was found to be 52 nM.

Turning to `Cc1ncc(C2(COc3cccc(C(F)(F)F)n3)CNC(=O)O2)c(C2CCN(C(=O)Nc3c(F)cccc3F)CC2)n1` (stereo not drawn) [Compound N52, N-(2,6-Difluorophenyl)-4-{2-methyl-5-[2-oxo-5-({[6-(trifluoromethyl)pyridin-2-yl]oxy}methyl)-1,3-oxazolidin-5-yl]pyrimidin-4-yl}piperidine-1-carboxamide], the IC50 amounted to 13.8 nM.
